US8748461B2, “Metalloenzyme inhibitor compounds” (Viamet Pharmaceuticals, Inc., priority 2011, dated 2014)
Values after ≈ are worked out from the molar mass of the structure shown.

Tests used:
[1] = test system: C. albicans; assay: Minimum Inhibitory Concentration (MIC) (C. albicans), CLSI M27-A2; format: cell-based; conditions: Candida albicans; about 50% growth reduction; approximately 48 h at 35±1° C.
Procedure: A. Minimum Inhibitory Concentration (MIC) (C. albicans) Compounds of the present disclosure were assessed for their ability to inhibit the growth of common strains of fungus, C. albicans using a standardized procedure (CLSI M27-A2). Stock solutions of the test compounds and standards were prepared in DMSO at 1,600 μg/mL (C. albicans). Eleven, serial, one-half dilutions of compounds were prepared in 96-well plates in RPMI+MOPS. The assay concentration ranges were 8-0.001 μg/mL (C. albicans). Cell suspensions of C. albicans were prepared and added to each well at concentrations of approximately 3.7×10^3 colony-forming-units per milliliter (cfu/mL). All testing was in duplicate. The inoculated plates were incubated for approximately 48 h at 35±1° C. At the completion of incubation the wells of each plate were evaluated visually for the presence of fungal growth. […] For QC purposes C. krusei isolate ATCC 6258 (4.0×10^3 cfu/mL) was included in the VOR assay.

[2] = target: T1, CYP2C9 (Homo sapiens, UniProt P11712); assay: Inhibition of liver cytochrome P450 enzymes, isozyme 2C9; format: in vitro ADME; conditions: pooled human liver microsomes
T1 construct: from tissue; host or cells: pooled human liver microsomes
T1 sequence (P11712 whole entry): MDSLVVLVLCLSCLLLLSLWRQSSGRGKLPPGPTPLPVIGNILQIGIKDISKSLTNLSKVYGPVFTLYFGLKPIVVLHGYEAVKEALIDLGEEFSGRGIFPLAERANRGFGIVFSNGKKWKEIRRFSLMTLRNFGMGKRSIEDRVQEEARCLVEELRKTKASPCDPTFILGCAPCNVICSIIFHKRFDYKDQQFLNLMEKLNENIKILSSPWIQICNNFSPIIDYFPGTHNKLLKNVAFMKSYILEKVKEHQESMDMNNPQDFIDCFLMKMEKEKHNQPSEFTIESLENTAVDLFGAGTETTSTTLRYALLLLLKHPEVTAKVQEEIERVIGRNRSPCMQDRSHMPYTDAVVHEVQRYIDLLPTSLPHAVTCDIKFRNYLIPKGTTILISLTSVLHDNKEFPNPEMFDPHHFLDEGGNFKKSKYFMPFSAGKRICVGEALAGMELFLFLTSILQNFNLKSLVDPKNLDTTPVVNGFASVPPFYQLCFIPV
Procedure: (§1) B. […] Solutions of each test compound were separately prepared at concentrations of 20000, 6000, 2000, 600, 200, and 60 μM by serial dilution with DMSO:acetonitrile (MeCN) (50:50 v/v). The individual test compound solutions were then diluted 20-fold with DMSO:MeCN:deionized water (5:5:180 v/v/v) to concentrations of 1000, 300, 100, 30, 10, and 3 μM. […] The mixed inhibitor solutions were then diluted 20-fold with DMSO:MeCN:deionized water (5:5:180 v/v/v) to concentrations of 300, 100, 30, 10, 3, 1, 0.3, and 0.1 μM. The percent of organic solvent attributable to the test compound or inhibitor mixture in the final reaction mixture was 2% v/v. Pooled human liver microsome suspension (20 mg/mL) was diluted with phosphate buffer to obtain a 5 mg/mL suspension. A solution of NADPH was prepared in phosphate buffer at a concentration of 5 mM. Separate stock solutions of each substrate were prepared in DMSO:MeCN (50:50 v/v), mixed, and diluted in phosphate buffer to obtain a single solution containing each substrate at five times its experimentally determined Km concentration. […] A portion of the supernatant was analyzed by gradient reverse-phase HPLC with detection by electrospray ionization triple quadrupole mass spectrometry in the positive ion mode. Data was fitted to sigmoid dose-response curves and the inhibitory potency of each test compound was determined as its IC50 value.

[3] = target: T2, CYP2C19 (Homo sapiens, UniProt P33261); assay: Inhibition of liver cytochrome P450 enzymes, isozyme 2C19; format: in vitro ADME; conditions: pooled human liver microsomes
T2 construct: from tissue; host or cells: pooled human liver microsomes
T2 sequence (P33261 whole entry): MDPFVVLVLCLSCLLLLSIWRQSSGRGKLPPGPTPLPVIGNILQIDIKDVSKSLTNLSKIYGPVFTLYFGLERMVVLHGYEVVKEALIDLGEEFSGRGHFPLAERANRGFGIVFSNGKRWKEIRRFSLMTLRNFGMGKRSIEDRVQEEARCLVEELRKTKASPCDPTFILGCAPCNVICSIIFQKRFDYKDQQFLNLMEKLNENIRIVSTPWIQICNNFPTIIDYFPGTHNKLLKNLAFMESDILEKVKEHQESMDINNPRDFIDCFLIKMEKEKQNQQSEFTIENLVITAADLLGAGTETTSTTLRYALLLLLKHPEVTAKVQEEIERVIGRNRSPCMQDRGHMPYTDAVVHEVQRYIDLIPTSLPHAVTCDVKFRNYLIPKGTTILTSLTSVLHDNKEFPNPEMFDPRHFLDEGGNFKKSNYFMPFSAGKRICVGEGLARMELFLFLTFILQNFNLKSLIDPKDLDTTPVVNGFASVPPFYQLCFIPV
Procedure: as §1

[4] = target: T3, CYP3A4 (Homo sapiens, UniProt P08684); assay: Inhibition of liver cytochrome P450 enzymes, isozyme 3A4; format: in vitro ADME; conditions: pooled human liver microsomes
T3 construct: from tissue; host or cells: pooled human liver microsomes
T3 sequence (P08684 whole entry): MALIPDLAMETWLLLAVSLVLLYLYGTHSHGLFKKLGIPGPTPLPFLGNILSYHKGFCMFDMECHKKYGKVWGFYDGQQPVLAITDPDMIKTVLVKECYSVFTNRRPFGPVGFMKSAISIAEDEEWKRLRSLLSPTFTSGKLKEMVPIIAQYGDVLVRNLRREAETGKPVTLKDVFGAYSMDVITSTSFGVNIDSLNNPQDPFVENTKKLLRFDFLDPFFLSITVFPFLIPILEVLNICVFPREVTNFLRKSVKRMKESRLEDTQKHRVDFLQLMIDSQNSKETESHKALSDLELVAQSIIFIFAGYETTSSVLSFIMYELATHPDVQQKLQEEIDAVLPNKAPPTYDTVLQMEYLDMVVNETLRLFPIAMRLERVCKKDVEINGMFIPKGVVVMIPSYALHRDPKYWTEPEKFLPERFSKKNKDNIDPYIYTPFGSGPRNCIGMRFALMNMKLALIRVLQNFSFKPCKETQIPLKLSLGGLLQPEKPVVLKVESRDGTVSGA
Procedure: as §1

[5] = test system: Septoria tritici (ATCC 26517); assay: Minimum Inhibitory Concentration (MIC) vs. Septoria tritici; format: cell-based; conditions: Zymoseptoria tritici, ATCC26517, 168 h; 50% reduction in growth of S. tritici; 22° C., seven days; read-out: Septoria Rating (MIC)
In short: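 Growth inhibition of S. tritici by CLSI-based filamentous-fungus microdilution, 2-fold series 16 to 0.016 μg/mL in RPMI-1640/MOPS with 2% DMSO. Inoculum approximately 5×10^4 cfu/mL; plates incubated 22° C, seven days, dark, unshaken.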

[6] = test system: Puccinia recondita tritici = Puccinia triticina; assay: Fungicidal activity vs. leaf rust on wheat plants; format: in vivo; conditions: 50 ppm spray on wheat (Yuma), inoculated the following day, evaluated 7-9 days later; read-out: Puccinia Rating (% Disease Control @ 50 ppm)
In short: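 Wheat seedlings were sprayed to wetness with compound at 50 ppm in 10% acetone/Triton X100 water, at about 1500 L/ha. They were inoculated with P. recondita tritici spores the following day and held overnight at high humidity before greenhouse growth. Disease severity was rated 7-9 days later on a rating scale.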

OC(Cn1cnnn1)(c1ccc(F)cc1F)C(F)(F)c1ccc(OCc2cccc(F)c2)cn1 (stereo not shown) [Compound 3, 2-(2,4-Difluorophenyl)-1,1-difluoro-1-(5-(3-fluorobenzyloxy)pyridin-2-yl)-3-(1H-tetrazol-1-yl)propan-2-ol]
MIC [1]: 0.002 µg/mL (≈ 0.00419 µM) | IC50 [2]: 12 µM | IC50 [3]: 11 µM | IC50 [4]: 8.4 µM | MIC [5]: ≤ 0.5 µg/mL | pest or weed control at 50 ppm [6]: 80 to 100%

N#Cc1ccc(Oc2ccc(C(F)(F)C(O)(Cn3cnnn3)c3ccc(F)cc3F)nc2)cc1 (stereo not shown) [Compound 5, 4-(6-(2-(2,4-Difluorophenyl)-1,1-difluoro-2-hydroxy-3-(1H-tetrazol-1-yl)propyl)pyridin-3-yloxy)benzonitrile]
MIC [1]: 0.031 µg/mL (≈ 0.0659 µM) | IC50 [2]: 31 µM | IC50 [3]: 16 µM | IC50 [4]: 16 µM | MIC [5]: ≤ 0.5 µg/mL | pest or weed control at 50 ppm [6]: 80 to 100%

N#Cc1ccc(C(F)(F)COc2ccc(C(F)(F)C(O)(Cn3cnnn3)c3ccc(F)cc3F)nc2)cc1 (stereo not shown) [Compound 121, 4-(2-((6-(2-(2,4-difluorophenyl)-1,1-difluoro-2-hydroxy-3-(1H-tetrazol-1-yl)propyl)pyridin-3-yl)oxy)-1,1-difluoroethyl)benzonitrile]
MIC [5]: ≤ 0.5 µg/mL | pest or weed control at 50 ppm [6]: 80 to 100%

OC(Cn1cnnn1)(c1ccc(F)cc1F)C(F)(F)c1ccc(OCC(F)(F)c2ccc(Cl)cc2)cn1 (stereo not shown) [Compound 122, 1-(5-(2-(4-chlorophenyl)-2,2-difluoroethoxy)pyridin-2-yl)-2-(2,4-difluorophenyl)-1,1-difluoro-3-(1H-tetrazol-1-yl)propan-2-ol]
MIC [5]: ≤ 0.5 µg/mL | pest or weed control at 50 ppm [6]: 80 to 100%

OC(Cn1cnnn1)(c1ccc(F)cc1F)C(F)(F)c1ccc(OCC(F)c2ccccc2)cn1 (stereo not shown) [Compound 123, 2-(2,4-difluorophenyl)-1,1-difluoro-1-(5-(2-fluoro-2-phenylethoxy)pyridin-2-yl)-3-(1H-tetrazol-1-yl)propan-2-ol]
MIC [5]: ≤ 0.5 µg/mL | pest or weed control at 50 ppm [6]: 80 to 100%

OC(Cn1cnnn1)(c1ccc(F)cc1F)C(F)(F)c1ccc(OCC(F)c2ccc(OC(F)F)cc2)cn1 (stereo not shown) [Compound 124, 1-(5-(2-(4-(difluoromethoxy)phenyl)-2-fluoroethoxy)pyridin-2-yl)-2-(2,4-difluorophenyl)-1,1-difluoro-3-(1H-tetrazol-1-yl)propan-2-ol]
MIC [5]: ≤ 0.5 µg/mL | pest or weed control at 50 ppm [6]: 80 to 100%

OC(Cn1cncn1)(Cn1cncn1)c1ccc(F)cc1F [Fluconazole, reference compound]
MIC [1]: 0.5 µg/mL (≈ 1.63 µM)

C[C@@H](c1ncncc1F)[C@](O)(Cn1cncn1)c1ccc(F)cc1F [Voriconazole, reference compound]
MIC [1]: 0.016 µg/mL (≈ 0.0458 µM)
